In patent US20250368645A1, “BETA CARBOLINE ANALOGUES AS SELECTIVE AND BIASED KAPPA OPIOID RECEPTORS AGONISTS FOR TREATING VARIOUS ASSOCIATED PATHOPHYSIOLOGICAL CONDITIONS” (COUNCIL OF SCIENTIFIC AND INDUSTRIAL RESEARCH, priority 2022, published 2025):

Tests used:
Assay type in all cases: cell-based
human KOR = human KOR (Homo sapiens, UniProt P41145); assay: GloSensor assay, Gi-mediated cAMP inhibition in HEK-293T cells transfected with human KOR; details: given as Log IC50 (negative values); agonist activity, inhibition of FSK-stimulated cAMP; read-out: GloSensor Assay (Log IC50) KOR (converted)
Sequence of human KOR (P41145 whole entry): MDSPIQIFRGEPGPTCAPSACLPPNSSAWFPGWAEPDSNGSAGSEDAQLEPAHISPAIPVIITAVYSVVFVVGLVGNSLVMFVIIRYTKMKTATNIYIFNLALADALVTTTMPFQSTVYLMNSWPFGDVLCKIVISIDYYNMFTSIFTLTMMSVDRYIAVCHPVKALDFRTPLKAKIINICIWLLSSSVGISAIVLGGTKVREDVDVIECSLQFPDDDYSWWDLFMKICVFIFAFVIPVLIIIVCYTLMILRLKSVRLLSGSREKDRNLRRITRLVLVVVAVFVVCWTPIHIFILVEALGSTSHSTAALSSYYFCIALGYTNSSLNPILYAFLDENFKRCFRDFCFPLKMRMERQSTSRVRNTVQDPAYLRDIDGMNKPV

MOR = MOR (Homo sapiens, UniProt P35372); assay: GloSensor assay at MOR; details: given as Log IC50 (negative values)
Sequence of MOR (P35372 whole entry): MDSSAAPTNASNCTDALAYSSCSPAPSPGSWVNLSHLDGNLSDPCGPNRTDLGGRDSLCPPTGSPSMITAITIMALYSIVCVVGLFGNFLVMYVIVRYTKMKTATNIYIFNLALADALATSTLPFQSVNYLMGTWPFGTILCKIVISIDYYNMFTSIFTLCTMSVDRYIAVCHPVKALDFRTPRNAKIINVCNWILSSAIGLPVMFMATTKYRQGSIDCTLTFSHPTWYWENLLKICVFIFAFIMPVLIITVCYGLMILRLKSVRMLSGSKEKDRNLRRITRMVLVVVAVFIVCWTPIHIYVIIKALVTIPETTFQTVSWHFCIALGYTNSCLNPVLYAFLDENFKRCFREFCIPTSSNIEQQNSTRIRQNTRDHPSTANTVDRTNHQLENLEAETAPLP

DOR = DOR (Homo sapiens, UniProt P41143); assay: GloSensor assay at DOR; details: given as Log IC50 (negative values)
Sequence of DOR (P41143 whole entry): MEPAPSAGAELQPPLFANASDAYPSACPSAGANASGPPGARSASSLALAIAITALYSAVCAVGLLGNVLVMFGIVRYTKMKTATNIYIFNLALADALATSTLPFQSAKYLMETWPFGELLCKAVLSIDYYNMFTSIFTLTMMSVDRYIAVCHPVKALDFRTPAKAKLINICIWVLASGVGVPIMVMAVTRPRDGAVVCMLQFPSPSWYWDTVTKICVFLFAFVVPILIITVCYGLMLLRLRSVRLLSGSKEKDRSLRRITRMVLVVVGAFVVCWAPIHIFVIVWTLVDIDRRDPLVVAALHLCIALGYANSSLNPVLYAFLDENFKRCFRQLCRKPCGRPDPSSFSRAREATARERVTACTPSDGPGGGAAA

SMILES | IC50 (human KOR) [µM] | IC50 (MOR) [µM] | IC50 (DOR) [µM]
Clc1ccc(-c2c3c4[nH]c5ccccc5c4cc[n+]3cn2Cc2ccsc2)cc1 [9acj, 1-(4-Chlorophenyl)-2-(thiophen-3-ylmethyl)-2,11-dihydroimidazo[1′,5′:1,2]pyrido[3,4-b]indol-4-ium chloride] | > 10 | > 10 | > 10
Fc1cccc(-c2c3c4[nH]c5ccccc5c4cc[n+]3cn2-c2ccc(Cl)cc2)c1 [8aic, 2-(4-Chlorophenyl)-1-(3-fluorophenyl)-2,11-dihydrolmidazo[1′,5′:1,2]pyrido[3,4-b]indol-4-ium chloride] | 0.0912 | > 10 | > 10
FC(F)(F)Oc1ccc(Cn2c[n+]3ccc4c5ccccc5[nH]c4c3c2-c2ccc(Cl)cc2)cc1 [9abh, 1-(4-Chlorophenyl)-2-(4-(trifluoromethoxy)benzyl)-2,11-dihydroimidazo[1′,5′:1,2]pyrido[3,4-b]indol-4-ium chloride] | > 10 | > 10 | > 10
COc1ccc(Cn2c[n+]3ccc4c5ccccc5[nH]c4c3c2-c2ccc(Cl)cc2)cc1OC [9abg, 1-(4-Chlorophenyl)-2-(3,4-dimethoxybenzyl)-2,11-dihydroimidazo[1′,5′:1,2]pyrido[3,4-b]indol-4-ium chloride] | 0.955 | > 10 | > 10
COc1ccc(Cn2c[n+]3ccc4c5ccccc5[nH]c4c3c2-c2ccc(Br)cc2)cc1OC [9aag, 1-(4-Bromophenyl)-2-(3,4-dimethoxybenzyl)-2,11-dihydroimidazo[1′,5′:1,2]pyrido[3,4-b]indol-4-ium chloride] | 0.166 | > 10 | > 10
Fc1ccc(-c2c3c4[nH]c5ccccc5c4cc[n+]3cn2-c2cccc(Cl)c2)cc1 [8agf, 2-(3-Chlorophenyl)-1-(4-fluorophenyl)-2,11-dihydroimidazo[1′,5′:1,2]pyrido[3,4-b]indol-4-ium chloride] | > 10 | > 10 | > 10
Clc1ccc(-c2c3c4[nH]c5ccccc5c4cc[n+]3cn2-c2cccc(Cl)c2)cc1 [8adf, 2-(3-Chlorophenyl)-1-(4-chlorophenyl)-2,11-dihydroimidazo[1′,5′:1,2]pyrido[3,4-b]indol-4-ium chloride] | > 10 | > 10 | > 10
Fc1ccc(-n2c[n+]3ccc4c5ccccc5[nH]c4c3c2-c2ccc(Br)cc2)cc1F [8abm, 1-(4-Bromophenyl)-2-(3,4-difluorophenyl)-2,11-dihydroimidazo[1′,5′:1,2]pyrido[3,4-b]indol-4-ium chloride] | > 10 | > 10 | > 10
Fc1ccc(-c2c3c4[nH]c5ccccc5c4cc[n+]3cn2-c2cccc(Br)c2)cc1 [8age, 2-(3-Bromophenyl)-1-(4-fluorophenyl)-2,11-dihydroimidazo[1′,5′:1,2]pyrido[3,4-b]indol-4-ium chloride] | > 10 | > 10 | > 10
Fc1ccccc1-n1c[n+]2ccc3c4ccccc4[nH]c3c2c1-c1ccc(Br)cc1 [8abk, 1-(4-Bromophenyl)-2-(2-fluorophenyl)-2,11-dihydroimidazo[1′,5′:1,2]pyrido[3,4-b]indol-4-ium chloride] | 0.0794 | > 10 | > 10
COC(=O)c1cc2c3ccccc3[nH]c2c2c(-c3ccc(C)cc3)n(-c3ccc(F)cc3)c[n+]12 [8bkd, 2-(4-Fluorophenyl)-5-(methoxycarbonyl)-1-(p-tolyl)-2,11-dihydroimidazo[1′,5′:1,2]pyrido[3,4-b]indol-4-iumchloride] | > 10 | > 10 | > 10
COC(=O)c1cc2c3ccccc3[nH]c2c2c(-c3ccc(Br)cc3)n(-c3ccc(Cl)cc3)c[n+]12 [8bbc, 1-(4-Bromophenyl)-2-(4-chlorophenyl)-5-(methoxycarbonyl)-2,11-dihydroimidazo[1′,5′:1,2]pyrido[3,4-b]indol-4-iumchloride] | > 10 | > 10 | > 10
Clc1ccccc1-c1c2c3[nH]c4ccccc4c3cc[n+]2cn1-c1ccccc1 [8aea, 1-(2-Chlorophenyl)-2-phenyl-2,11-dihydroimidazo[1′,5′:1,2]pyrido[3,4-b]indol-4-ium chloride] | > 10 | > 10 | > 10
Cc1ccc(-c2c3c4[nH]c5ccccc5c4c4ccccc4[n+]3cn2-c2ccc(F)cc2)cc1 [12bc, 2-(4-Fluorophenyl)-1-(p-tolyl)-2,13-dihydrolmidazo[1,5-a]indolo[2,3-c]quinolin-4-ium chloride] | > 10 | > 10 | > 10
Brc1ccc2[nH]c3c(cc[n+]4cn(-c5ccccc5)c(-c5ccccc5Br)c34)c2c1 [8cca, 8-Bromo-1-(2-bromophenyl)-2-phenyl-2,11-dihydrolmidazo[1′,5′:1,2]pyrido[3,4-b]indol-4-ium chloride] | > 10 | > 10 | > 10
Fc1ccc(-c2c3c4[nH]c5ccccc5c4cc[n+]3cn2-c2ccc(F)cc2)cc1 [8agd, 1,2-Bis(4-fluorophenyl)-2,11-dihydroimidazo[1′,5′:1,2]pyrido[3,4-b]indol-4-ium chloride] | > 10 | > 10 | > 10

SMILES | IC50 (human KOR) [µM] | IC50 (MOR) [µM] | IC50 (DOR) [µM]
COc1ccc(Cn2c[n+]3ccc4c5ccccc5[nH]c4c3c2-c2ccc(Br)cc2)cc1 [9aae] | 3.31 | > 10 | > 10
COc1cc(-c2c3c4[nH]c5ccccc5c4cc[n+]3cn2-c2ccc(F)cc2)cc(OC)c1OC [8apd, 2-(4-Fluorophenyl)-1-(3,4,5-trimethoxyphenyl)-2,11-dihydroimidazo[1′,5′:1,2]pyrido[3,4-b]indol-4-ium chloride] | > 10 | > 10 | > 10
Fc1ccc(-n2c[n+]3ccc4c5ccccc5[nH]c4c3c2-c2cccs2)cc1 [8and, 2-(4-Fluorophenyl)-1-(thiophen-2-yl)-2,11-dihydroimidazo[1′,5′:1,2]pyrido[3,4-b]indol-4-ium chloride] | 0.209 | > 10 | > 10
Fc1ccc(-n2c[n+]3ccc4c5ccccc5[nH]c4c3c2-c2cccc(F)c2)cc1 [8aid, 1-(3-Fluorophenyl)-2-(4-fluorophenyl)-2,11-dihydroimidazo[1′,5′:1,2]pyrido[3,4-b]indol-4-ium] | 0.2 | > 10 | > 10
Clc1ccc(-n2c[n+]3ccc4c5ccccc5[nH]c4c3c2-c2ccccc2)cc1 [8aac, 2-(4-Chlorophenyl)-1-phenyl-2,11-dihydroimidazo[1′,5′:1,2]pyrido[3,4-b]indol-4-ium chloride] | 0.126 | > 10 | > 10
Clc1ccc(-c2c3c4[nH]c5ccccc5c4c4ccccc4[n+]3cn2-c2ccc(Cl)cc2)cc1 [12dd, 1,2-Bis(4-chlorophenyl)-2,13-dihydroimidazo[1,5-a]indolo[2,3-c]quinolin-4-ium chloride] | > 10 | > 10 | > 10
COc1ccc(Cn2c[n+]3ccc4c5ccccc5[nH]c4c3c2-c2ccc(Cl)cc2)cc1 [9abe, 1-(4-Chlorophenyl)-2-(4-methoxybenzyl)-2,11-dihydrolmidazo[1′,5′:1,2]pyrido[3,4-b]indol-4-ium chloride] | 0.0759 | > 10 | > 10
Clc1ccccc1-c1c2c3[nH]c4ccccc4c3cc[n+]2cn1-c1ccc(Br)cc1 [8aeb, 2-(4-Bromophenyl)-1-(2-chlorophenyl)-2,11-dihydroimidazo[1′,5′:1,2]pyrido[3,4-b]indol-4-ium chloride] | > 10 | 1.26 | 2
Brc1ccc(-c2c3c4[nH]c5ccccc5c4cc[n+]3cn2-c2ccc(Br)cc2)cc1 [8abb, 1,2-Bis(4-bromophenyl)-2,11-dihydroimidazo[1′,5′:1,2]pyrido[3,4-b]indol-4-ium chloride] | > 10 | > 10 | > 10
Clc1ccc(-n2c[n+]3ccc4c5ccccc5[nH]c4c3c2-c2cccc(Cl)c2)cc1 [8afc, 1-(3-Chlorophenyl)-2-(4-chlorophenyl)-2,11-dihydrolmidazo[1′,5′:1,2]pyrido[3,4-b]indol-4-ium chloride] | 0.316 | > 10 | > 10
Fc1ccc(F)c(Cn2c[n+]3ccc4c5ccccc5[nH]c4c3c2-c2ccc(Br)cc2)c1 [9aaf] | > 10 | > 10 | > 10
Clc1cccc(-n2c[n+]3ccc4c5ccccc5[nH]c4c3c2-c2ccc(Br)cc2)c1 [8abf, 1-(4-Bromophenyl)-2-(3-chlorophenyl)-2,11-dihydroimidazo[1′,5′:1,2]pyrido[3,4-b]indol-4-ium chloride] | > 10 | > 10 | > 10
Brc1ccc(-n2c[n+]3ccc4c5ccccc5[nH]c4c3c2-c2ccccc2)cc1 [8aab, 2-(4-Bromophenyl)-1-phenyl-2,11-dihydroimidazo[1′,5′:1,2]pyrido[3,4-b]indol-4-ium chloride] | 0.0661 | > 10 | > 10
c1ccc(-c2c3c4[nH]c5ccccc5c4cc[n+]3cn2-c2ccccc2)cc1 [8aaa, 1,2-Diphenyl-2,11-dihydroimidazo[1′,5′:1,2]pyrido[3,4-b]indol-4-ium chloride] | > 10 | > 10 | > 10
Fc1ccc(-n2c[n+]3ccc4c5ccccc5[nH]c4c3c2-c2ccc(Br)cc2)c(Cl)c1 [8abl, 1-(4-Bromophenyl)-2-(2-chloro-4-fluorophenyl)-2,11-dihydrolmidazo[1′,5′:1,2]pyrido[3,4-b]indol-4-ium chloride] | > 10 | > 10 | > 10
Clc1ccccc1-n1c[n+]2ccc3c4ccccc4[nH]c3c2c1-c1ccc(Br)cc1 [8abj, 1-(4-Bromophenyl)-2-(2-chlorophenyl)-2,11-dihydroimidazo[1′,5′:1,2]pyrido[3,4-b]indol-4-ium] | 0.251 | 0.251 | > 10
